Where two headings read alike, the source gives them in different places. Square brackets hold non-standard residues; d marks the D form. Ends that are not written are not given here. pS = N[C@@H](COP(=O)(O)O)C(=O)O
Assays:
[1] = system: fast axonal transport (FAT) in isolated squid axoplasm; test: Squid axoplasm motility assays (vesicle motility); format: cell-based, Loligo pealii; conditions: for effect on FAT (axonal transport): perfused alone into squid axoplasm (tau 2 μM; ING-135 100 nM); for effect on retrograde FAT rates / effect on anterograde FAT rates: perfused into isolated squid axoplasm; for effect on anterograde FAT rates: 2 μM; for prevention of 2-18 peptide-induced anterograde FAT inhibition: co-perfused with 2-18 peptide; for prevention of 2-18 peptide-induced anterograde FAT inhibition / prevention of 6D tau-mediated anterograde FAT inhibition: I-2 50 nM; for prevention of 6D tau-mediated anterograde FAT inhibition: co-perfused with 6D tau, okadaic acid 200 nM
squid microtubules = test: Microtubule morphology at axoplasm periphery after perfusion; format: cell-based; conditions: 2 μM perfused into axoplasm
Source text: Microtubule rigidity is increased when tau binds to the microtubule surface, and this effect is observable even at low, nonsaturating tau concentrations (Feigner, et al. (1997) J. Cell Biol. 138:1067-1075; Morfini, et al. (2007) supra). As an additional indicator of hTau40's ability to interact with squid microtubules, axoplasm was perfused with tau and the morphology of microtubules at the axoplasm periphery was examined.

[2] = system: kinesin-1 associated with vesicles; test: Motor proteins on membrane vesicle fractions purified from squid axoplasms; conditions: 40 minutes incubation
Description: After 40 minutes of incubation, axoplasms were transferred, along with perfusion buffer, to low protein binding 1.5 ml centrifuge tubes containing 200 μl of homogenization buffer (0.25 mM sucrose, 1 mM EDTA, 10 mM Hepes, pH 7.4, 1/100 protease inhibitor cocktail (Sigma), 1/200 phosphatase inhibitor cocktail set II (Calbiochem), 2 μM K252a (Calbiochem), 1 μM PKI (Upstate, Lake Placid, N.Y.)), and carefully homogenized by two passages through a 23-G syringe needle and five passages through a 27-G syringe needle using a 1-ml Hamilton pipette. Axoplasm homogenates were adjusted to 30% iodixanol by mixing 200 μl of axoplasm homogenates with 300 μl of solution D (50% (w/v) iodixanol, 10 mM MgCl2 in 250 mM sucrose). […] Samples were centrifuged at 250,000 g max for 1 hour at 4° C. in an RP55-S SORVALL rotor. Three hundred microliters containing floating vesicles were collected from immediately below the 5% iodixanol interface, and 60 μl of 6× loading sample buffer was added.
To determine whether tau filaments induce the dissociation of kinesin-1 from cargo, “sister” axoplasms were obtained from individual animals and treated with monomeric or filamentous hTau40 (2 μM). […] After 40 minutes of incubation, axoplasmic vesicle fractions were isolated and kinesin-1 levels were evaluated with an antibody against KHCs. […]

[3] = system: fast axonal transport (FAT) in isolated squid axoplasm; conditions: cited from earlier work
[4] = system: endogenous squid microtubules; test: Microtubule-binding (sedimentation) assay; conditions: 5 μM tau construct, squid optic lobe cytosol
PP2A = PP2A (Homo sapiens, UniProt P67775); conditions: even at micromolar concentrations; cited from earlier work
[5] = Tau polymerization with arachidonic acid, electron microscopy; format: physicochemical; conditions: 4 μM tau, 75 μM arachidonic acid
Description: Tau polymerization was induced using AA according to known methods (King, et al. (1999) Biochemistry 38:14851-14859), except that KCl was substituted for NaCl in the polymerization buffer. […] Briefly, tau protein (4 μM) was incubated at room temperature in reaction buffer (50 mM HEPES, pH 7.6, 50 mM KCl, 5 mM DTT) in the presence of 75 μM AA (in ethanol vehicle). Samples of soluble tau were prepared for perfusion in the same manner, except that arachidonic acid was excluded from the polymerization buffer. Control mixtures containing AA but lacking tau were prepared in parallel. Final ethanol concentration in all samples was 3.8%.
Polymerization reactions were allowed to proceed for 6 hours, fixed with 2% glutaraldehyde, spotted onto 300 mesh formvar/carbon-coated copper grids (Electron Microscopy Sciences, Hatfield, Pa.), and negatively stained with 2% uranyl acetate (King, et al. (1999) supra). […]
To determine whether these domains are involved in FAT inhibition, two tau constructs were assayed, Δ2-18 and 1-421, containing deletions at the extreme amino- and carboxy-termini, respectively. […] Therefore, the formation of tau filaments under these experimental conditions was assessed by electron microscopic analysis.

fyn kinase = molecular target: T1, fyn kinase (Homo sapiens, UniProt P06241); test: In vitro phosphorylation of tau by fyn kinase; format: biochemical; conditions: compared to wild-type tau; 1 μM tau
T1 construct: purchased Millipore
Description: Samples were heated to 60° C. for 5 minutes and separated on 10% acrylamide gels via SDS-PAGE. The proteins were transferred to nitrocellulose membranes, blocked in 2% non-fat dry milk Tris-buffered saline (NFDM-TBS; Tris 50 mM, NaCl 150 mM, pH 7.4). The membranes were incubated in primary antibodies (R1-1:300,000 and 9G3-1:8000) overnight at 4° C. The next day, the membranes were rinsed in TBS+0.1% TWEEN 20 and then incubated in the appropriate secondary antibody (1:5000; diluted in 2% NFDM-TBS). Immunoreactivity was visualized using ECL solution and the level of reactivity was quantified by measuring the optical density of immunoreactive bands with ImageJ software (v1.41, NIH). The average pixel intensities of the main tau bands were measured. Data are expressed as the ratio of 9G3 intensity to R1 intensity (error bars—s.e.m.).
Phosphorylation was carried out at 32° C. for […]. Samples were diluted 1:1 in 2× Laemmli buffer at 0, 10, 20, 40, and 60 minutes to stop the reaction. Samples were stored at −20° C. until used for immunoblotting.
Fyn kinase is a non-receptor tyrosine kinase known to phosphorylate tau at Tyr18 and phosphoTyrl8 (pTyr18) and is found in tau inclusions of AD brains (Lee, et al. (2004) supra). Phosphorylation at Tyr18 by fyn kinase prevents tau-mediated inhibition of anterograde FAT in squid axoplasm.

[6] = coperfused with hTau40 filaments (2 μM), SB203580 5 μM, CREBpp 0.5 mM, ING-135 100 nM, okadaic acid 100 nM, inhibitor-2 50 nM

T1 sequence (P06241 whole entry): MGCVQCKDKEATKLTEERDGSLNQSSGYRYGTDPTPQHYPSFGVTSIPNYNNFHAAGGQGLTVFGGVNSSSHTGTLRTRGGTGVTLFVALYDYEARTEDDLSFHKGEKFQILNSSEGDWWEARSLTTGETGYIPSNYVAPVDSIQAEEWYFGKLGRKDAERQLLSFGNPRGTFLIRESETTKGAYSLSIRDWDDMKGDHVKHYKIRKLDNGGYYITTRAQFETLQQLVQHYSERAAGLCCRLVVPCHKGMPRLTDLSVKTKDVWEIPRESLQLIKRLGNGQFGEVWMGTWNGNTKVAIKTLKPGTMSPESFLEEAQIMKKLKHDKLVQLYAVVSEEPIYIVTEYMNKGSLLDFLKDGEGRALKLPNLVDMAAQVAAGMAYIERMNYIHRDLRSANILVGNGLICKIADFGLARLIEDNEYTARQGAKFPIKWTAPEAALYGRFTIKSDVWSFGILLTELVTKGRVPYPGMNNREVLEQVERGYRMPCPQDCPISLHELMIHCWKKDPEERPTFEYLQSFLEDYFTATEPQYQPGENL
Sequence of PP2A (P67775 whole entry): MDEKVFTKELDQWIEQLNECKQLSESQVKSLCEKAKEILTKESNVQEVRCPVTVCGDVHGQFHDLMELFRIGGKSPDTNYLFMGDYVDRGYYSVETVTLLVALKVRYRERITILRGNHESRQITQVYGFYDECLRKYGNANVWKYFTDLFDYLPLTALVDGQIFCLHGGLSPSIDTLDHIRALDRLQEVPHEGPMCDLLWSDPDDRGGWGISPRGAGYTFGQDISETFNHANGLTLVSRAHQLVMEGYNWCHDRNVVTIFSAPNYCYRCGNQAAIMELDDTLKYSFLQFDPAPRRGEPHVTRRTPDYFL

hTau40 filaments: recombinant hTau40 polymerized into filaments with arachidonic acid
effect on FAT (axonal transport) [1]: inhibition | effect on retrograde FAT rates [1]: remained unaffected | effect on anterograde FAT rates [1]: inhibited | effect on anterograde FAT rates ([1]; listed as hTau40 F): significantly reduced | effect on anterograde FAT rates ([1]; listed as tau filaments): inhibit | morphology of peripheral microtubules (squid microtubules): did not produce changes in microtubule morphology | levels of dynein intermediate chain on vesicles [2]: unaffected

KRREILSRRPpSYR (KRREILSRRP[pS]YR) [CREBpp, reference compound]
block of effects of 1-421 tau filaments on FAT ([1]; coperfused with 1-421 tau filaments): also blocked | block of tau filament-induced inhibition of anterograde FAT [1, 6]: blocked | effect on FAT, perfused alone ([3]; CREBpp alone in squid axoplasm): has no effect

AEPRQEFEVMEDHAGTY [2-18 peptide]
effect on anterograde FAT rates [1]: induced a significant inhibition | effect on anterograde FAT rates ([1]; listed as PAD): inhibit

K23: tau construct lacking both alternatively spliced N-terminal exons and all four MTBRs [reference compound]
sedimentation with taxol-assembled squid microtubules (supernatant vs pellet) [4]: remained in the supernatant fraction

inhibitor-2 [reference compound]
prevention of 2-18 peptide-induced anterograde FAT inhibition ([1]; ING-135 100 nM): completely prevented | prevention of 6D tau-mediated anterograde FAT inhibition ([1]; ING-135 100 nM): complete prevention | block of tau filament-induced inhibition of anterograde FAT [1, 6]: prevented FAT inhibition | effect on PP2A (PP2A): has no effect

active GSK-3β: recombinant, active GSK-3β from Sigma [reference compound]
levels of dynein intermediate chain on vesicles [2]: unaffected

monomeric hTau40: full-length tau, longest isoform in adult human brain, 441 amino acids, soluble monomer
effect on FAT (axonal transport) ([1]; listed as full-length wild-type tau monomers): had no effect | effect on FAT (axonal transport) ([1]; listed as soluble tau): does not affect | effect on retrograde FAT rates [1]: no effect | effect on anterograde FAT rates [1]: no effect | sedimentation with taxol-assembled squid microtubules (supernatant vs pellet) [4]: depleted from the supernatant fraction and found in association with the microtubule-enriched pellet fraction | morphology of peripheral microtubules (squid microtubules): caused peripheral microtubules to acquire a straight, rigid appearance | filament formation under axoplasm perfusion buffer conditions [5]: form morphologically indistinguishable filaments

C[S+]([O-])c1ccc(-c2nc(-c3ccncc3)c(-c3ccc(F)cc3)[nH]2)cc1 (centres unmarked) [SB203580, reference compound]
block of tau filament-induced inhibition of anterograde FAT [1]: did not block

C=C1[C@@H](O)[C@@H]2O[C@]3(CC[C@H](/C=C/[C@@H](C)[C@@H]4CC(C)=C[C@@]5(O[C@H](C[C@@](C)(O)C(=O)O)CC[C@H]5O)O4)O3)CC[C@H]2O[C@@H]1[C@@H](O)C[C@H](C)[C@H]1O[C@@]2(CCCCO2)CC[C@H]1C [okadaic acid, reference compound]
prevention of 6D tau-mediated anterograde FAT inhibition ([1]; ING-135 100 nM): abolished | prevention of 6P tau-mediated anterograde FAT inhibition ([1]; co-perfused with 6P tau): The same effect was noted | block of tau filament-induced inhibition of anterograde FAT [1, 6]: blocked | effect on FAT, perfused alone ([3]; okadaic acid alone, concentrations up to 1 μM): have no effect

Cn1cc(C2=C(c3coc4ccccc34)C(=O)NC2=O)c2cc(Br)ccc21 [ING-135, reference compound]
prevention of 2-18 peptide-induced anterograde FAT inhibition ([1]; ING-135 100 nM): completely prevented | prevention of 6D tau-mediated anterograde FAT inhibition ([1]; ING-135 100 nM): completely blocked | block of tau filament-induced inhibition of anterograde FAT [1, 6]: blocked | effect on FAT (axonal transport) [1]: had no effect

AT8 tau: tau with Ser199, Ser202, Thr205 mutated to glutamic acid, AT8 pseudophosphorylated mutant
effect on retrograde FAT rates [1]: unaffected | effect on anterograde FAT rates [1]: significantly reduced | maximal level of phosphorylation at Tyr18 by fyn kinase (fyn kinase): lower | rate of phosphorylation at Tyr18 by fyn kinase (fyn kinase): slower
